Data set [1] deals with T1, human sex Hormone Binding Globulin (SHBG) (Homo sapiens, UniProt P04278).
T1 construct: Human SHBG was purified from transgenic mouse serum; made in house; host or cells: transgenic mouse (serum)
T1 sequence (P04278 30-402): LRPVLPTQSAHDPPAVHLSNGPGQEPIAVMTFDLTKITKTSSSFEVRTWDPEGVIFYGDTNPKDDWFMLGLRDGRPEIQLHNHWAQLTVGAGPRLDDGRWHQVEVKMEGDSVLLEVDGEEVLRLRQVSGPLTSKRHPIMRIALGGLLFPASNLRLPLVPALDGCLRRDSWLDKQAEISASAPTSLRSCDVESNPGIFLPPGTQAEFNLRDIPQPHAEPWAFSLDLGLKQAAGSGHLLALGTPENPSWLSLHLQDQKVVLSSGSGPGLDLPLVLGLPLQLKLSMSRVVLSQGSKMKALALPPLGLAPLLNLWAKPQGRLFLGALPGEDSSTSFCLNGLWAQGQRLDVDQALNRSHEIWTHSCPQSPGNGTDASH
As to the kind of experiment: Competitive steroid-binding assay for human SHBG. The following applies: for relative binding affinity for human SHBG: rank order ethinylestradiol < 17β-estradiol < testosterone < 5α-dihydrotestosterone. On the procedure:
Human SHBG was treated for 30 min at room temperature with a dextran-coated charcoal (DCC) suspension in phosphate buffered saline (PBS) to remove any steroid ligand. After centrifugation (2,000×g for 10 min) to sediment the DCC, the supernatant containing the human SHBG was diluted in PBS to a concentration of 1 nM based on its steroid binding capacity.
The average amounts of [^3H]labeled ligands bound to SHBG at each concentration of competitor (B) were expressed as a percentage of the average amounts of [^3H]labeled ligands bound to SHBG in the absence of competitor (B0), and were plotted against the concentration of competitor in each assay tube.

Another data set deals with four-day cyclic rats. As to the kind of experiment: Antiovulatory bioassay after oral administration. Format: in vivo, rat. To be noted: for ED50: Rattus norvegicus, 96 h. On the procedure:
A bioassay method (modified according to De Visser et al., 1984, Arzneim. […].
Rats are spontaneously ovulating, polyestrous mammals. Generally, proestrus lasts for 12 to 14 hours, estrus for 25 to 27 hours, metestrus for 6 to 8 hours, and diestrus for 55 to 57 hours (Freeman, 1988, In: The Physiology of Reproduction, E Knobil and J Neill (eds). Raven Press, Ltd, New York, pp. 1893-1928). These stages of the estrous cycle can be classified based on the cell types present in daily vaginal smears (Schwartz, 1969, Recent Prog. Horm. Res. 25, 1-55).
The preovulatory period of the rat estrous cycle is characterized by ovarian follicular growth and enhanced estrogen secretion. In the four-day cyclic rat, peripheral plasma levels of E2 are basal through estrus. At the end of metestrus and extending through early diestrus, plasma levels of E2 begin to rise. This increase continues through diestrus and early proestrus to reach peak values and plateau by mid-proestrus. Subsequently, E2 levels fall rapidly, reaching basal values by the early morning hours of estrus. The rising estrogen levels from late metestrus to early proestrus exert a positive feedback effect on the hypothalamic-pituitary axis resulting in a luteinizing hormone (LH) surge on the afternoon of proestrus. The LH surge induces follicular rupture and the release of ova in the early morning hours of estrus. By early afternoon on the day of estrus, ova are present in the ampulla of the oviduct and are readily visualized under a dissecting microscope.
Progesterone or levonorgestrel administered subcutaneously on diestrus to four-day cyclic rats is known to inhibit ovulation and increased the estrous cycle length in a dose-dependent manner (Beattie and Corbin, 1975, Endocrinology 97, 885-890). It was shown that the progestational block of ovulation takes place predominately via the hypothalamic-pituitary axis.
Vaginal smears from female rats were obtained daily for two weeks to identify four-day cycling rats. Only four-day cyclic rats were used for the antiovulatory bioassay. […] Twice daily dosing continued for an additional 3 consecutive days. One day after the final dose (day 5), the rats were euthanized by CO2 asphyxiation at approximately 1 pm, and the number of ova per oviduct was determined and recorded. Group means were calculated for the number of ova per ovulated rat (both oviducts). The ratio of rats ovulating for each treatment group was compared to the ratio for the vehicle-treated rats.

The target of data set [2] is T2, rat uterine nuclear estrogen receptor (Rattus norvegicus, UniProt P06211).
T2 construct: rat uterine cytosol estrogen receptor; host or cells: rat uterus (cytosol and nuclear fractions)
T2 sequence (P06211 1-600): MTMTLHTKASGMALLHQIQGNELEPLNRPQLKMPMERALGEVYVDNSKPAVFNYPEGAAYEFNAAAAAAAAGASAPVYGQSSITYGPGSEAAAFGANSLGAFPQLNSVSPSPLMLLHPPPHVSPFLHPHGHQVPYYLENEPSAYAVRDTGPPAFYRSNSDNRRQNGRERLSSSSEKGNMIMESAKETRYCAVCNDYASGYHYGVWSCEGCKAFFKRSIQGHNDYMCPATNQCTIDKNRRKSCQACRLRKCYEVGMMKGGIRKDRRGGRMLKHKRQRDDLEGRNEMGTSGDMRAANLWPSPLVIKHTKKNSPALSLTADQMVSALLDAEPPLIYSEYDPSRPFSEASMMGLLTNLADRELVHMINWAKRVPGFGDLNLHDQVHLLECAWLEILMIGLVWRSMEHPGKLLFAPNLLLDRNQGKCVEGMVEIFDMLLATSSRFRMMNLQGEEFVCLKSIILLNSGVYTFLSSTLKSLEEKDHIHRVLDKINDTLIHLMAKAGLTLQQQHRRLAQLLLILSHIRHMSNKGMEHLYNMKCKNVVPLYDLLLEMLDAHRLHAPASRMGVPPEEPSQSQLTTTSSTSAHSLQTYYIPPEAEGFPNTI
The following applies: cited from earlier work.

For data set [3] the following is noted: intravenous, two adult women, tritium labeled; cited from earlier work.
The next data set concerns nonpregnant ewes. The following applies: intravenously administered; cited from earlier work.
Data set [4] relates to human breast cancer cells (MCF-7). To be noted: MCF-7, long term tissue culture; cited from earlier work.
For data set [5], the target named is T3, rat uterine cytosol estrogen receptor (Rattus norvegicus, UniProt P06211).
T3 construct: rat uterine cytosol estrogen receptor; host or cells: rat uterus (cytosol and nuclear fractions)
T3 sequence (P06211 1-600): T2 sequence (P06211 1-600)
The following applies: cited from earlier work.

The next data set concerns immature rat uterus. To be noted: subcutaneous, cited from earlier work.
Data set [6] concerns ovariectomized adult rats. Description: Vaginal cornification bioassay after oral administration. Format: in vivo, rat. The following applies: 0.1 and 0.3 mg/kg/day po. From the text: Uterine weight increase in the rat is more commonly used as a measure of estrogenicity. […] In the early 1920s it was discovered that follicular fluid from the pig ovary contained a factor(s) that caused cornification/keratinization of the vaginal epithelium in the rat (Allen and Doisy, 1923, JAMA, 81, 819-821; Allen and Doisy, 1924, Am. J. Physiol., 69, 577-588). The so-called vaginal cornification response in rats subsequently provided a bioassay for testing estrogenicity. Vaginal epithelial cornification/keratinization in ovariectomized rats can be produced only by compounds considered to be true estrogens (Jones et al, 1973, Fert. Steril. 24, 284-291). […] Adult intact female CD rats were ovariectomized to induce estrogen deficiency. […] Castrate vaginal smears are indicative that complete ovariectomy was achieved. Treatment commenced following completion of the 7 days of smearing (day 0=first day of dosing). Animals were dosed, once daily for 7 consecutive days. Daily vaginal lavages continued to be obtained for 7 days after dosing was initiated in order to detect vaginal cornification, as an indication of an estrogenic response. A drop of vaginal washings was placed on a glass slide and examined by light microscopy to detect the presence or absence of cornified epithelial cells. Vaginal lavages were obtained prior to dosing on days 0-6 and prior to necropsy on day 7. […]

For data set [7], the target named is T4, estrogen receptors in the human endometrium (Homo sapiens, UniProt P03372).
T4 construct: estrogen receptors in the human endometrium; host or cells: human endometrium (nuclei)
T4 sequence (P03372 1-595): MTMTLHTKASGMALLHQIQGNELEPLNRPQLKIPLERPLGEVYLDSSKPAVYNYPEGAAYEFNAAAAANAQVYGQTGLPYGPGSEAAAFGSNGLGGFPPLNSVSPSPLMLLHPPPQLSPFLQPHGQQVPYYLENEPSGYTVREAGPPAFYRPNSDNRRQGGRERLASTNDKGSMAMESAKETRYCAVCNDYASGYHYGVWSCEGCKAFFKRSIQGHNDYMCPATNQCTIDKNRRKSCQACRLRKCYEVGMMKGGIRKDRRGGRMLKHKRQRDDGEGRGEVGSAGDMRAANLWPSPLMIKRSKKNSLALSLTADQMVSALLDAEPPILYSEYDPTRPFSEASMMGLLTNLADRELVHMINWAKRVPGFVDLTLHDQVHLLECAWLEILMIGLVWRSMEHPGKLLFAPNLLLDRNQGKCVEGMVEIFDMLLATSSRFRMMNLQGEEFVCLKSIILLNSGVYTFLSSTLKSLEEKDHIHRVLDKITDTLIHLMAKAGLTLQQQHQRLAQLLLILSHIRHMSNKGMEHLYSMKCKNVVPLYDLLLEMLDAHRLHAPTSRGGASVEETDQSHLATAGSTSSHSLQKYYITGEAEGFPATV
The following applies: Tseng et al. 1978; cited from earlier work.

[8] abbreviates: 30 μg/kg po twice daily for 4 days.
The mark [9] stands for this setting: 100 μg/kg po twice daily for 4 days.
[10] abbreviates: 300 μg/kg po twice daily for 4 days.
Where [11] appears, read: 1000 μg/kg po twice daily for 4 days.
The mark [12] stands for this setting: 3000 μg/kg po twice daily for 4 days.

Read-outs that look alike come from different tables or passages of the source.

This is an account of results in patent publication US7732430B2, “Drug delivery system comprising a tetrahydroxilated estrogen for use in hormonal contraception” (Pantarhei Bioscience B.V., priority 2001, dated 2010).

For the compound `C[C@]12CCC(=O)C[C@@H]1CC[C@@H]1[C@@H]2CC[C@]2(C)[C@@H](O)CC[C@@H]12` [5α-dihydrotestosterone, reference compound], in [1], the “relative binding affinity for human SHBG” value is given as “in this order, show an increased relative binding affinity”.

For orientation: ED50 means the midpoint of the dose-response relation. On to `C[C@]12CC[C@@H]3c4ccc(O)cc4CC[C@H]3[C@@H]1CC[C@@H]2O` [E2, 17β-estradiol, reference compound], for which the “ovulation blocked (rats of 8)” value in the data set on four-day cyclic rats (setting [8]) was “ineffective in inhibiting ovulation”; in the data set with four-day cyclic rats (setting [9]), 7 of 8; with four-day cyclic rats (setting [10]) it was 8 of 8; with four-day cyclic rats (setting [11]), 8 of 8; in the data set on four-day cyclic rats (setting [12]), 8 of 8. In the data set with four-day cyclic rats (po twice daily for 4 days), this compound displayed a median effective dose (ED50) of 0.03 to 0.1 mg/kg.

In the data set with four-day cyclic rats (po twice daily for 4 days), `C#C[C@]1(O)CC[C@H]2[C@@H]3CCc4cc(O)ccc4[C@H]3CC[C@@]21C` [EE, 17α-ethinyl estradiol, reference compound] gave a median effective dose (ED50) of 0.01 mg/kg.

With `C[C@]12CC[C@@H]3c4ccc(O)cc4CC[C@H]3[C@@H]1[C@@H](O)[C@@H](O)[C@@H]2O` [estetrol, 1,3,5(10)-estratrien-3,15α,16α,17β-tetrol], the “relative binding affinity, 17β-estradiol = 100%” value is listed as 0.3% in [2] and 0.5% in data set [5]. In addition, the excretion entry in [3] was “rapidly and completely excreted in urine as the glucosiduronate”. The metabolism entry in [3] is reported as “virtually no metabolism except for conjugation”. In addition, the “potency in uterine vasodilation, times less potent than estriol and 17β-estradiol” value with nonpregnant ewes is listed as 15 to 30 times. Moreover, the “agonistic potency relative to 17β-estradiol in cell proliferation” value in [4] is 2%. The uterotrophic activity result with immature rat uterus (Holinka et al. 1979) and in the data set with immature rat uterus (Holinka et al. 1980) was “very weak uterotrophic activity” each time. In addition, in data set [6], the “onset of vaginal cornification (animals responding at days 1-3)” value is given as “as fast as in EE-treated animals”. For the same compound, the “relative binding, % of 17β-estradiol” value in data set [7] is reported as 1.5%. The “binding to human SHBG” value in data set [1] ([3H]DHT as labeled ligand) and in [1] ([3H]estradiol as labeled ligand) was “does not bind at all” throughout. Besides, the “relative binding affinity for human SHBG” value in [1] is reported as “negligible”. The “ovulation blocked (rats of 8)” value in the data set on four-day cyclic rats (setting [8]) was “failed to inhibit ovulation”; in the data set on four-day cyclic rats (setting [9]), 2 of 8; in the data set with four-day cyclic rats (setting [10]), 5 of 8; with four-day cyclic rats (setting [11]), 7 of 8; in the data set on four-day cyclic rats (setting [12]), 8 of 8. The median effective dose (ED50) in the data set on four-day cyclic rats (po twice daily for 4 days) is 0.182 mg/kg. Besides, the “antiovulatory potency compared with E2” value with four-day cyclic rats (po twice daily for 4 days) was “approximates the antiovulatory potency of E2”. Moreover, the “antiovulatory potency, times less potent than ethinylestradiol” value with four-day cyclic rats (po twice daily for 4 days) was determined as 18 times.

In the case of `C[C@]12CC[C@H]3[C@@H](CCC4=CC(=O)CC[C@@]43C)[C@@H]1CC[C@@H]2O` [testosterone, reference compound], in [1], the “relative binding affinity for human SHBG” value is listed as “in this order, show an increased relative binding affinity”.
